# According to patent US20240116856A1 (Young BioPharma, LLC, priority 2020, published 2024):
# Like-named read-outs stand apart in the source and are kept apart here.
# Tests used:
# [1] = system: NCI-H460; experiment: Human cancer cell growth inhibition assay (ATP assay), NCI-H460; type: cell-based; settings: Homo sapiens, NCI-H460, 96 h; 4 days; Means±SEM from three independent experiments; read-out: NCl-H460, IC50
# [2] = system: OVCAR-8 cell invasion; experiment: Cancer cell invasion assay, OVCAR-8; type: cell-based, human; settings: 24 h
# Description: A cancer cell invasion assay was developed based on literature protocols (Methods 2005, 37, 208; EMBO J 2002, 21, 6289; Cellular Signalling 2012, 24, 1276.). Membrane matrix gel (Cat #A1413201, ThermoFisher) was diluted in ice-cold, serum-free RPMI 1640 Medium (Cat #31800022, ThermoFisher) at a concentration of 0.5-0.6 mg/mL. Then it was added to the upper compartment (100 μL per cup) of millicell inserts (Cat #PI8P01250, ThermoFisher) placed in a 24-well plate (Part no. 229123, Celltreat). The plate was incubated at 37° C. for 2 h to allow the liquid gel to solidify. RPMI 1640 Medium supplemented with 10% FBS (300 μL) was added to the well of the plate (lower compartment) as attractant, then DMSO or compounds were added. Human cancer cells (1×10^5 cells in 200 μL of RPMI 1640 Medium) were added to the upper compartment of the insert, then DMSO or compounds were added. After the plate was incubated at 37° C. for 24 h, the cells were fixed on the lower side of the insert membrane with 4% formaldehyde and stained with 1% crystal violet (Part no. IS12146, Innovating Science). The invaded cells on the lower side of the filter were counted under an inverted microscope equipped with either a 4× or a 10× objective (FIG. 11). The cell numbers from 5 random views were averaged and plotted as percentage against the DMSO control (FIG. 12A).
# [3] = Operant Pain Tolerance Assay; type: in vivo; settings: intraplantar
# Description: Model 3—The ability of YB-16 to increase pain tolerance was tested using a newly published Operant Pain Tolerance Assay (eNeuro 2020, 7, ENEURO.0210-19.2020). In the assay, mice were trained to seek a sucrose reward that was on a hot 42° C. plate (versus no reward on a neutral 30° C. plate). It was noticed that intraplantar YB-16 treated mice with paw inflammatory injury [induced by Complete Freund's adjuvant (CFA) 24 hrs prior to treatment] trended to spend 145% more time on the hot side of the assay but not necessarily additional time near the sucrose bottle compared to vehicle treated mice (FIG. 10B).
# [4] = system: Src protein activation in NCI-H460 cells; experiment: Cancer cell immunocytochemistry assay, Phospho-Src (Y416), NCI-H460; type: cell-based, human; settings: YB-1 15 μM, capsaicin 50 μM, 1-6 h
# Description: Human cancer cells (15,000 cells/well) in 96 well half area microplate (Cat #3882, Corning) were incubated overnight at 37° C., then compounds or DMSO control were added to the cell culture and incubated at 37° C. for 1-6 h. The cells were sequentially fixed with 4% formalin, permeabilized with 0.5% Triton X-100, blocked with 5% BSA in PBS, incubated with Human Phospho-Src (Y416) Antibody (Cat #MAB2685, R&D Systems) at rt for 2 h, incubated with the secondary antibody Goat Ant-Rabbit IgG H&L (Alexa Fluor 488) (Cat #ab150077, abeam) for 45 min, and incubated with DAPI (Cat #D9542, Sigma-Aldrich) for 5 min. Finally, the cells were washed and covered with PBS. The cell images were visualized on an inverted fluorescence microscope (Leica DMIL Fluorescent Inverted Microscope with Digital Camera, Leica Microsystems). Pictures were taken [FIGS. 14A-C. Green: Human Phospho-Src (Y416), the activated form of the Src protein; Blue: DAPI (stain nucleus of cell)]. The fluorescence intensity values from 5 random cells were averaged, subtracted by the background value (area between cells) and the blank value [the blank control without the Human Phospho-Src (Y416) Antibody], then plotted as percentage against the DMSO control to indicate the effects of compound treatment on the cellular Src kinase phosphorylation levels in the cancer cells (FIGS. 15A-D).
# [5] = target: T1, human TRPA1 (Homo sapiens, UniProt O75762); experiment: In vitro Ca2+ flux counter-screen in human TRPA1 overexpressing cells; type: cell-based; settings: counter-screen; read-out: TRPA1 EC50
# T1 construct: expressed in transfected cells; host or cells: overexpressing cells
# [6] = target: T2, human TRPV3 (Homo sapiens, UniProt Q8NET8); experiment: In vitro Ca2+ flux counter-screen in human TRPV3 overexpressing cells; type: cell-based; settings: counter-screen; read-out: TRPV3 EC50
# T2 construct: expressed in transfected cells; host or cells: overexpressing cells
# T2 sequence (Q8NET8 1-790): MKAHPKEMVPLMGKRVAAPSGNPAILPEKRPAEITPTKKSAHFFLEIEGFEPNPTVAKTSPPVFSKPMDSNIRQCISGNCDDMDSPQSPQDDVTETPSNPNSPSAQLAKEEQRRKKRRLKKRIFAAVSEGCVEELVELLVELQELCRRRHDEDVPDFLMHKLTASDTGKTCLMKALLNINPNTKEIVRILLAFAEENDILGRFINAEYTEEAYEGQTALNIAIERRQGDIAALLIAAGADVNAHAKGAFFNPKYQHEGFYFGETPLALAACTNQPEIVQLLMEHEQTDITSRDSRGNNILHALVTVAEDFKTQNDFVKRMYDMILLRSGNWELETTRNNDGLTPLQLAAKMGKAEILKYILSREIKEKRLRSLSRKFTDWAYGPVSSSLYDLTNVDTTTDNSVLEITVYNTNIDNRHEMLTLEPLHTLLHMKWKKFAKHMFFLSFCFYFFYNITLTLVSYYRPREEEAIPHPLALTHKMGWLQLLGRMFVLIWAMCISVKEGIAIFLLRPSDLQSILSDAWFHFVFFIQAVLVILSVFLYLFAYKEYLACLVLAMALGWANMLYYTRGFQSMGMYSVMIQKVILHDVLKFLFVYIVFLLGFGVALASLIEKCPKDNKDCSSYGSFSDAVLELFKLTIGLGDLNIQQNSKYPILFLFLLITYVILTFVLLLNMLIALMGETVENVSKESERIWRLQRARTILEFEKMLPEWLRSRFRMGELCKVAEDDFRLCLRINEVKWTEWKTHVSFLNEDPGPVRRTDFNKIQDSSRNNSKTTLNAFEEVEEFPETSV
# [7] = system: MDA-MB-231 cell invasion; experiment: Cancer cell invasion assay, MDA-MB-231; type: cell-based, human; settings: 24 h
# Outline: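 Transwell inserts were coated with membrane matrix gel (0.5-0.6 mg/mL) and loaded with 1×10^5 human cancer cells in RPMI 1640, with 10% FBS medium below as attractant. Compound or DMSO went into both compartments for 24 h at 37 °C. Invaded cells were fixed, crystal-violet stained, counted in 5 random fields and expressed as % of DMSO control.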
# [8] = Scoville Heat Units, cited from earlier work
# [9] = intraplantar; for reduction of first phase spontaneous behavior: 5-10 g dose
# T1 sequence (O75762 whole entry): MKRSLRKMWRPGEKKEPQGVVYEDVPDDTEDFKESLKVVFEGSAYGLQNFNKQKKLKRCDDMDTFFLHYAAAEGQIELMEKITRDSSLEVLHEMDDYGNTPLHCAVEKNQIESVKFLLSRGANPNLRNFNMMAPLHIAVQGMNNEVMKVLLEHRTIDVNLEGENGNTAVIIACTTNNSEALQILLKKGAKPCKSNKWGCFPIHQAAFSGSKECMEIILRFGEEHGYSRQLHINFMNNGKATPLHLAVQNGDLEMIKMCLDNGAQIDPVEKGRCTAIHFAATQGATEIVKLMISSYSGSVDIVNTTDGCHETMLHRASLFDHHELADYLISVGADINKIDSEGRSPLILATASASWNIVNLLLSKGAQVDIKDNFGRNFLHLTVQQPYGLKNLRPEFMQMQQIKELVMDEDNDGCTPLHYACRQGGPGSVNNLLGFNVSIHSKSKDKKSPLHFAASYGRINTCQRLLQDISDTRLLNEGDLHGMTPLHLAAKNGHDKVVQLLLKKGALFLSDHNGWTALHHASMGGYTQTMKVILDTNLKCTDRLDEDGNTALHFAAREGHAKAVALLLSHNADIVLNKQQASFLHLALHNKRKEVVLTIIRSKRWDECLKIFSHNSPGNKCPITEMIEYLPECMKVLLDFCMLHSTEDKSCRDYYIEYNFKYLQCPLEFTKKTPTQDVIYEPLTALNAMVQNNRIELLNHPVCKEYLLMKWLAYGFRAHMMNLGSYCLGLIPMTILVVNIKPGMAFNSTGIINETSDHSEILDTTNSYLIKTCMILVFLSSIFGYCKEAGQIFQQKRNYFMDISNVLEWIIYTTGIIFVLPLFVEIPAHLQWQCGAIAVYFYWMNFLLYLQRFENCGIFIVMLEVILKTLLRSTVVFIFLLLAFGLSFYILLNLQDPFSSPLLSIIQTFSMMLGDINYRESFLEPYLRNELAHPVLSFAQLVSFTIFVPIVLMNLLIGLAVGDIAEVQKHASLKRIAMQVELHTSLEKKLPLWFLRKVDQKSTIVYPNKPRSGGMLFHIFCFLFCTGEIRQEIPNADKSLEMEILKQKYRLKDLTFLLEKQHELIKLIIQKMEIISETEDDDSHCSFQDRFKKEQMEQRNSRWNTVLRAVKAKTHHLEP
compound,measurement,setting,value
"COc1cc(CNC(=O)CCCC/C=C/C(C)C)ccc1O [Capsaicin, trans-8-methyl-N-vanillyl-6-nonenamide, reference compound]",IC50,[1],200 ± 65 µM
same,inhibition of OVCAR-8 cell invasion,[2],dose-dependently inhibited
same,sedation in operant pain tolerance assay,[3],inflammatory injury with sedation
same,sensitivity to hot plate after inflammatory injury,[3]; paw inflammatory injury (CFA),Weak trend for reduced sensitivity to
same,cellular Src kinase phosphorylation levels,[4],time-dependently reduced the cellular Src kinase phosphorylation levels
same,EC50,[5],> 10 µM
same,EC50,[6],> 10 µM
same,inhibition of MDA-MB-231 cell invasion,[7],dose-dependently inhibited
same,Pungency (SHU),[8],"16,000,000 SHU"
same,Pungency (SHU),[8]; listed as capsaicin,16.0 million
same,maximum tolerated dose (MTD),[9],5 g
same,reduction of first phase spontaneous behavior,[9]; 2 hr prior to formalin,44% reduction in first phase pain
same,reduction of first phase spontaneous behavior,"[9]; 2 hr prior to formalin, listed as capsaicin",44%
same,animals with sedation,[9]; 10 g dosing group,20%
same,effect in the second phase of the formalin test,[9]; 2 hr prior to formalin,not statistically significant
same,effect on formalin spontaneous pain-like behavior,[9]; 2 hr prior to formalin,reduce spontaneous pain-like behavior in a dose-related manner
same,animal death and sedation in formalin test,[9]; listed as capsaicin,One of the capsaicin treated animals died
